Experimental data published in ChEMBL document CHEMBL1201862, “PubChem BioAssay data set” (2004).
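These data come from cells grown in 96-well plates and exposed to compound for 48 hours at five concentrations. The concentration for 50% growth inhibition is given as GI50.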 Activity calls are given as the source filed them. Rule as the data show it: active = GI50 up to about 1.1 µM and inactive = higher.

Experiments:
Test in all cases: inhibition of tumour cell growth, NCI panel, 48 h
SNB-75 = tested on: SNB-75
SK-MEL-2 = tested on: SK-MEL-2
HCT-15 = tested on: HCT-15
MCF7 = tested on: MCF7
SK-MEL-28 = tested on: SK-MEL-28
DU-145 = tested on: DU-145
SW-620 = tested on: SW-620
OVCAR-3 = tested on: OVCAR-3
KM12 = tested on: KM12
NCI-H23 = tested on: NCI-H23
MDA-MB-435 = tested on: MDA-MB-435
LOX IMVI = tested on: LOX IMVI
HOP-62 = tested on: HOP-62
SF-295 = tested on: SF-295
MDA-MB-231 = tested on: MDA-MB-231
SNB-19 = tested on: SNB-19
MOLT-4 = tested on: MOLT-4
K562 = tested on: K562
RXF 393 = tested on: RXF 393
EKVX = tested on: EKVX
NCI-H460 = tested on: NCI-H460
HT-29 = tested on: HT-29
MDA-N = tested on: MDA-N
TK-10 = tested on: TK-10
BT-549 = tested on: BT-549
COLO 205 = tested on: COLO 205
HL-60 = tested on: HL-60
ACHN = tested on: ACHN
SN12C = tested on: SN12C
HCC 2998 = tested on: HCC 2998
A549 = tested on: A549
UACC-62 = tested on: UACC-62
NCI-H522 = tested on: NCI-H522
OVCAR-5 = tested on: OVCAR-5
SF-268 = tested on: SF-268
PC-3 = tested on: PC-3
SR = tested on: SR
IGROV-1 = tested on: IGROV-1
786-0 = tested on: 786-0
Malme-3M = tested on: Malme-3M
NCI/ADR-RES = tested on: NCI/ADR-RES
HCT-116 = tested on: HCT-116
CCRF-CEM = tested on: CCRF-CEM
UACC-257 = tested on: UACC-257
SF-539 = tested on: SF-539
UO-31 = tested on: UO-31
Hs-578T = tested on: Hs-578T
SK-MEL-5 = tested on: SK-MEL-5
RPMI-8226 = tested on: RPMI-8226
OVCAR-8 = tested on: OVCAR-8
U-251 = tested on: U-251
CAKI-1 = tested on: CAKI-1
SK-OV-3 = tested on: SK-OV-3
NCI-H226 = tested on: NCI-H226
M14 = tested on: M14
HOP-92 = tested on: HOP-92

Q: Which results are given for `Cc1c2ccccc2cc2cccc[n+]12`?
A: GI50 (SNB-75): 21.9 µM (inactive); GI50 (SK-MEL-2): 41.3 µM (inactive); GI50 (HCT-15): > 100 µM; GI50 (MCF7): 57.7 µM (inactive); GI50 (SK-MEL-28): 25.7 µM (inactive); GI50 (DU-145): 61.4 µM (inactive); GI50 (SW-620): 8.34 µM (inactive); GI50 (OVCAR-3): 24.4 µM (inactive); GI50 (KM12): 6.52 µM (inactive); GI50 (NCI-H23): 18.2 µM (inactive); GI50 (MDA-MB-435): 36 µM (inactive); GI50 (LOX IMVI): 27.8 µM (inactive); GI50 (HOP-62): 21.6 µM (inactive); GI50 (SF-295): 34.8 µM (inactive); GI50 (MDA-MB-231): 37.7 µM (inactive); GI50 (SNB-19): 28.6 µM (inactive); GI50 (MOLT-4): 13 µM (inactive); GI50 (K562): 10.4 µM (inactive); GI50 (RXF 393): 23.3 µM (inactive); GI50 (EKVX): 4.72 µM (inactive); GI50 (NCI-H460): 35.2 µM (inactive); GI50 (HT-29): 29.2 µM (inactive); GI50 (MDA-N): 37.8 µM (inactive); GI50 (TK-10): 39.8 µM (inactive); GI50 (BT-549): 23.4 µM (inactive); GI50 (COLO 205): 19.8 µM (inactive); GI50 (HL-60): 29.3 µM (inactive); GI50 (ACHN): 62.1 µM (inactive); GI50 (SN12C): 29.6 µM (inactive); GI50 (HCC 2998): 15.2 µM (inactive); GI50 (A549): 6.82 µM (inactive); GI50 (UACC-62): 41.7 µM (inactive); GI50 (NCI-H522): 12.9 µM (inactive); GI50 (OVCAR-5): 56.6 µM (inactive); GI50 (SF-268): 10.4 µM (inactive); GI50 (PC-3): 30 µM (inactive); GI50 (SR): 12.6 µM (inactive); GI50 (IGROV-1): 26.1 µM (inactive); GI50 (786-0): 61.8 µM (inactive); GI50 (Malme-3M): 11.3 µM (inactive); GI50 (NCI/ADR-RES): > 100 µM (inactive); GI50 (HCT-116): 37.2 µM (inactive); GI50 (CCRF-CEM): 31.9 µM (inactive); GI50 (UACC-257): 19.2 µM (inactive); GI50 (SF-539): 32.1 µM (inactive); GI50 (UO-31): 10.6 µM (inactive); GI50 (Hs-578T): 25.6 µM (inactive); GI50 (SK-MEL-5): 27.4 µM (inactive); GI50 (RPMI-8226): 18.7 µM (inactive); GI50 (OVCAR-8): 31.6 µM (inactive)

Q: How did the GI50 (SNB-75) turn out when `O=C1C(c2c(O)[nH]c3ccc(F)cc23)=Nc2ccccc21` was run?
A: 3.21 µM (inactive)

Q: What about the GI50 (SK-MEL-2) of the same molecule?
A: 14.5 µM (inactive)

Q: What about the GI50 (U-251) of the same molecule?
A: 13.3 µM (inactive)

Q: And the GI50 (HCT-15)?
A: > 100 µM

Q: And the GI50 (MCF7)?
A: 6.56 µM (inactive)

Q: What about the GI50 (SK-MEL-28) of the same molecule?
A: > 100 µM (inactive)

Q: What about the GI50 (DU-145) of the same molecule?
A: > 100 µM (inactive)

Q: And the GI50 (CAKI-1)?
A: > 100 µM (inactive)

Q: And the GI50 (SW-620)?
A: > 100 µM (inactive)

Q: And the GI50 (SK-OV-3)?
A: 6.24 µM (inactive)

Q: And the GI50 (OVCAR-3)?
A: > 100 µM (inactive)

Q: And the GI50 (KM12)?
A: > 100 µM (inactive)

Q: What about the GI50 (NCI-H23) of the same molecule?
A: 73.1 µM (inactive)

Q: And the GI50 (MDA-MB-435)?
A: > 100 µM (inactive)

Q: What about the GI50 (LOX IMVI) of the same molecule?
A: > 100 µM (inactive)

Q: And the GI50 (HOP-62)?
A: 46.2 µM (inactive)

Q: What about the GI50 (SF-295) of the same molecule?
A: 27.4 µM (inactive)

Q: And the GI50 (MDA-MB-231)?
A: 12.9 µM (inactive)

Q: And the GI50 (SNB-19)?
A: 26.5 µM (inactive)

Q: What about the GI50 (MOLT-4) of the same molecule?
A: 21.1 µM (inactive)

Q: What about the GI50 (K562) of the same molecule?
A: 44.2 µM (inactive)

Q: What about the GI50 (NCI-H226) of the same molecule?
A: > 100 µM (inactive)

Q: And the GI50 (RXF 393)?
A: 3.19 µM (inactive)

Q: And the GI50 (EKVX)?
A: > 100 µM (inactive)

Q: And the GI50 (NCI-H460)?
A: > 100 µM (inactive)

Q: And the GI50 (HT-29)?
A: > 100 µM (inactive)

Q: What about the GI50 (M14) of the same molecule?
A: > 100 µM (inactive)

Q: And the GI50 (HOP-92)?
A: 10.9 µM (inactive)

Q: And the GI50 (MDA-N)?
A: > 100 µM (inactive)

Q: What about the GI50 (TK-10) of the same molecule?
A: 22.1 µM (inactive)

Q: And the GI50 (BT-549)?
A: > 100 µM (inactive)

Q: And the GI50 (COLO 205)?
A: > 100 µM (inactive)

Q: What about the GI50 (ACHN) of the same molecule?
A: > 100 µM (inactive)

Q: And the GI50 (SN12C)?
A: > 100 µM (inactive)

Q: What about the GI50 (HCC 2998) of the same molecule?
A: > 100 µM (inactive)

Q: What about the GI50 (A549) of the same molecule?
A: > 100 µM (inactive)

Q: And the GI50 (UACC-62)?
A: > 100 µM (inactive)

Q: And the GI50 (NCI-H522)?
A: > 100 µM (inactive)

Q: And the GI50 (OVCAR-5)?
A: > 100 µM (inactive)

Q: What about the GI50 (SF-268) of the same molecule?
A: 15.1 µM (inactive)

Q: What about the GI50 (PC-3) of the same molecule?
A: > 100 µM (inactive)

Q: What about the GI50 (SR) of the same molecule?
A: > 100 µM (inactive)

Q: And the GI50 (IGROV-1)?
A: 1.03 µM (active)

Q: What about the GI50 (786-0) of the same molecule?
A: 4.85 µM (inactive)

Q: What about the GI50 (Malme-3M) of the same molecule?
A: > 100 µM (inactive)

Q: And the GI50 (NCI/ADR-RES)?
A: > 100 µM (inactive)

Q: What about the GI50 (HCT-116) of the same molecule?
A: > 100 µM (inactive)

Q: What about the GI50 (CCRF-CEM) of the same molecule?
A: 28 µM (inactive)

Q: And the GI50 (UACC-257)?
A: > 100 µM (inactive)

Q: What about the GI50 (UO-31) of the same molecule?
A: > 100 µM (inactive)

Q: What about the GI50 (Hs-578T) of the same molecule?
A: 13.6 µM (inactive)

Q: What about the GI50 (SK-MEL-5) of the same molecule?
A: > 100 µM (inactive)

Q: And the GI50 (RPMI-8226)?
A: > 100 µM (inactive)

Q: And the GI50 (OVCAR-8)?
A: 8.13 µM (inactive)
